Laboratory results taken from patent US20060040957A1, “BICYCLIC PYRIMIDINE MATRIX METALLOPROTEINASE INHIBITORS” (priority 2001, published 2006).
Structures can show the parent of a compound that is named as a salt. Where two headings read alike, the source gives them in different places.

How the values were obtained:
Type in all cases: biochemical
[1] = target: MMP-13CD (catalytic domain of collagenase 3) (Homo sapiens, UniProt P45452); test: Thiopeptolide substrate hydrolysis assay, MMP-13CD
From the text: (§1) Thiopeptolide substrates show virtually no decomposition or hydrolysis at or below neutral pH in the absence of a matrix metalloproteinase enzyme.

[2] = target: T1, MMP-2FL (full length Gelatinase A) (Homo sapiens, UniProt P08253); test: Thiopeptolide substrate hydrolysis assay, MMP-2FL; conditions: HEPES pH 7.0, 22° C., read-out: IC50 (μM) Versus Certain MMPs: MMP-02 FL
T1 sequence (P08253 110-660): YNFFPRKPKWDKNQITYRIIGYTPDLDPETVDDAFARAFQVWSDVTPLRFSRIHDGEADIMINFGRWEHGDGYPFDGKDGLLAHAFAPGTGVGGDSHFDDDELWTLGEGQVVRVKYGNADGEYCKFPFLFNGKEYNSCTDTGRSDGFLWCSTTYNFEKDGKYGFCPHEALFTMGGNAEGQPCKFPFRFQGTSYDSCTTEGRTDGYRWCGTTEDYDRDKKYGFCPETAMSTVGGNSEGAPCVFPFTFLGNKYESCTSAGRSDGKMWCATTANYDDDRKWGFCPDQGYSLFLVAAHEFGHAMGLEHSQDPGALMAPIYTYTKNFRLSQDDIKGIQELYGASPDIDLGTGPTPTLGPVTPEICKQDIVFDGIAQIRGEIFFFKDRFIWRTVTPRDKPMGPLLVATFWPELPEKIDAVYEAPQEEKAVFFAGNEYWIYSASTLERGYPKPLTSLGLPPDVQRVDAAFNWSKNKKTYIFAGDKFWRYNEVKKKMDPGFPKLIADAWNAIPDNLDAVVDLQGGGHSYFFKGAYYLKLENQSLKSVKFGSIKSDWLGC
From the text: (§2) The invention compounds of Formula I have been evaluated in standard assays for their ability to inhibit the catalytic activity of various MMP enzymes.
as §1
(§3) Several representative compounds have been evaluated for their ability to inhibit various matrix metalloproteinase enzymes.

[3] = target: T2, MMP-7FL (full length matrilysin) (Homo sapiens, UniProt P09237); test: Thiopeptolide substrate hydrolysis assay, MMP-7FL; conditions: HEPES pH 7.0, 22° C., read-out: IC50 (μM) Versus Certain MMPs: MMP-07 FL
T2 sequence (P09237 95-267): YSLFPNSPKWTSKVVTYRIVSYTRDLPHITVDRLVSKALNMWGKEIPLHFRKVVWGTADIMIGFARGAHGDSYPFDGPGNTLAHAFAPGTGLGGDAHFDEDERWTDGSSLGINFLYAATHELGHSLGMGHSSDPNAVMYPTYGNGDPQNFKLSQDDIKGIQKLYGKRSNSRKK
From the text: as §2, §1, §3

[4] = target: MMP-9FL (full length Gelatinase B) (Homo sapiens, UniProt P14780); test: Thiopeptolide substrate hydrolysis assay, MMP-9FL; conditions: HEPES pH 7.0, 22° C., read-out: IC50 (μM) Versus Certain MMPs: MMP-09 FL
Sequence of MMP-9FL (full length Gelatinase B) (P14780 94-707, species assumed): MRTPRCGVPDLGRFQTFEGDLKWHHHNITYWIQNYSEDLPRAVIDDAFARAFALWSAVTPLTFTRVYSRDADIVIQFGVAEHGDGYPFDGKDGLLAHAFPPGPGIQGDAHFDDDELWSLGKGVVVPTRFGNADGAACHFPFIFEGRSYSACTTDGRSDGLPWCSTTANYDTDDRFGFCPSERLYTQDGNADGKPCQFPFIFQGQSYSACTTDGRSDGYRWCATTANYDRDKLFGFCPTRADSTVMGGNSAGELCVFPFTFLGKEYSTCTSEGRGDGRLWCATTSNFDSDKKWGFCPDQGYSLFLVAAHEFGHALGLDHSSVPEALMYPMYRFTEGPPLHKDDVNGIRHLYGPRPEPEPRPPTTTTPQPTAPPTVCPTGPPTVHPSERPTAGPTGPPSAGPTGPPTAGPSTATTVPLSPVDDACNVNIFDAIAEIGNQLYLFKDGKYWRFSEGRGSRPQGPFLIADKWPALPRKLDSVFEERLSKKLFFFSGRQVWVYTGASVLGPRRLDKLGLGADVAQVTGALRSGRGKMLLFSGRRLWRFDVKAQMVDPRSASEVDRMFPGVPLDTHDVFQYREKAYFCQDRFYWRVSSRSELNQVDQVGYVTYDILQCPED
From the text: as §2, §1, §3

[5] = target: MMP-14CD (catalytic domain of MMP-14) (Homo sapiens, UniProt P50281); test: Thiopeptolide substrate hydrolysis assay, MMP-14CD; conditions: HEPES pH 7.0, 22° C., read-out: IC50 (μM) Versus Certain MMPs: MMP-14 CD
From the text: as §2, §1, §3

[6] = thiopeptolide substrate, HEPES pH 7.0, 22° C., read-out: IC50 (μM) Versus Certain MMPs: MMP-13 CD
[7] = IC50 (μM) Versus Certain MMPs: MMP-13 CD, thiopeptolide substrate, HEPES pH 7.0, 22° C.

| Compound | IC50 [1, 6] | also measured |
| --- | --- | --- |
| COC(=O)c1cn2c(=O)n(Cc3ccccc3)c(=O)c(C)c2s1 [Example 33a, 6-Benzyl-8-methyl-5,7-dioxo-6,7-dihydro-5H-thiazolo[3,2-c]pyrimidine-2-carboxylic acid methyl ester] |  | IC50 (μM) Versus Certain MMPs: MMP-13 CD ([1]; thiopeptolide substrate, HEPES pH 7.0, 22° C.): none |
| Cc1c(=O)n(Cc2ccccc2)c(=O)n2cc(C(=O)NCc3cscn3)sc12 [Example 35, 6-Benzyl-8-methyl-5,7-dioxo-6,7-dihydro-5H-thiazolo[3,2-c]pyrimidine-2-carboxylic acid(thiazol-4-ylmethyl)-amide hydrochloride] | > 100 µM |  |
| Cc1c(=O)n(Cc2ccccc2)c(=O)n2cc(C(=O)NCc3cn4ccsc4n3)sc12 [Example 38, 6-Benzyl-8-methyl-5,7-dioxo-6,7-dihydro-5H-thiazolo[3,2-c]pyrimidine-2-carboxylic acid(imidazo[2,1-b]thiazol-6-ylmethyl)-amide] |  | IC50 [1, 7]: 25 µM |
| Cc1c(=O)n(Cc2ccccc2)c(=O)n2cc(C(=O)NCc3cnn(C)c3)sc12 [Example 39, 6-Benzyl-8-methyl-5,7-dioxo-6,7-dihydro-5H-thiazolo[3,2-c]pyrimidine-2-carboxylic acid(1-methyl-1H-pyrazol-4-ylmethyl)-amide] |  | IC50 [1, 7]: 2.3 µM |
| C#CCNC(=O)c1cn2c(=O)n(Cc3ccccc3)c(=O)c(C)c2s1 [Example 40, 6-Benzyl-8-methyl-5,7-dioxo-6,7-dihydro-5H-thiazolo[3,2-c]pyrimidine-2-carboxylic acid prop-2-ynylamide] | > 100 µM |  |
| Cc1cccc(CNC(=O)c2cn3c(=O)n(Cc4ccccc4)c(=O)c(C)c3s2)n1 [Example 41, 6-Benzyl-8-methyl-5,7-dioxo-6,7-dihydro-5H-thiazolo[3,2-c]pyrimidine-2-carboxylic acid(6-methyl-pyridin-2-ylmethyl)-amide] |  | IC50 [1, 7]: 6.2 µM |
| Cc1c(=O)n(Cc2ccccc2)c(=O)n2cc(C(=O)NCC3CCNCC3)sc12 [Example 45, 6-Benzyl-8-methyl-5,7-dioxo-6,7-dihydro-5H-thiazolo[3,2-c]pyrimidine-2-carboxylic acid(piperidin-4-ylmethyl)-amide hydrochloride] | > 100 µM |  |
| Cc1c(=O)n(Cc2ccccc2)c(=O)n2cc(C(=O)NCc3ccccn3)sc12 [Example 47, 6-Benzyl-8-methyl-5,7-dioxo-6,7-dihydro-5H-thiazolo[3,2-c]pyrimidine-2-carboxylic acid(pyridin-2-ylmethyl)-amide hydrochloride] |  | IC50 [1, 7]: 9.9 µM |
| Cc1nc(CNC(=O)c2cn3c(=O)n(Cc4ccccc4)c(=O)c(C)c3s2)cs1 [Example 52, 6-Benzyl-8-methyl-5,7-dioxo-6,7-dihydro-5H-thiazolo[3,2-c]pyrimidine-2-carboxylic acid(2-methyl-thiazol-4-ylmethyl)-amide hydrochloride] | > 100 µM |  |
| Cc1c(=O)n(Cc2ccc(C(=O)O)cc2)c(=O)n2cc(C(=O)NCc3ccc(F)cc3)sc12 [Example 58, 4-[2-(4-Fluoro-benzylcarbamoyl)-8-methyl-5,7-dioxo-7H-thiazolo[3,2-c]pyrimidin-6-ylmethyl]-benzoic acid] | 0.00222 µM | IC50 [2]: > 100 µM; IC50 [3]: > 100 µM; IC50 [4]: > 100 µM; IC50 [5]: > 100 µM |
| Cc1c(=O)n(Cc2nn[nH]n2)c(=O)n2cc(C(=O)NCc3ccc(F)cc3)sc12 [Example 66, 8-Methyl-5,7-dioxo-6-(2H-tetrazol-5-ylmethyl)-6,7-dihydro-5H-thiazolo[3,2-c]pyrimidine-2-carboxylic acid 4-fluoro-benzylamide] | 14 µM |  |
| Cc1c(=O)n(CCS(=O)(=O)c2ccc(Cl)cc2)c(=O)n2cc(C(=O)NCc3ccncc3)sc12 [Example 83, 6-[2-(4-Chloro-benzenesulfonyl)-ethyl]-8-methyl-5,7-dioxo-6,7-dihydro-5H-thiazolo[3,2-c]pyrimidine-2-carboxylic acid(pyridin-4-ylmethyl)-amide hydrochloride] | 2.6 µM |  |
| Cc1c(=O)n(Cc2ccc(C#N)cc2)c(=O)n2cc(C(=O)NCc3ccncc3)sc12 [Example 85, 6-(4-Cyano-benzyl)-8-methyl-5,7-dioxo-6,7-dihydro-5H-thiazolo[3,2-c]pyrimidine-2-carboxylic acid(pyridin-4-ylmethyl)-amide hydrochloride] | 0.0547 µM | IC50 [2]: > 30 µM; IC50 [3]: > 30 µM; IC50 [4]: > 30 µM; IC50 [5]: > 30 µM |
| Cc1c(=O)n(CCC(=O)c2ccccc2)c(=O)n2cc(C(=O)NCc3ccc(F)cc3)sc12 [Example 86, 8-Methyl-5,7-dioxo-6-(3-oxo-3-phenyl-propyl)-6,7-dihydro-5H-thiazolo[3,2-c]pyrimidine-2-carboxylic acid 4-fluoro-benzylamide] | 0.35 µM |  |
| Cc1c(=O)n(C(C)c2ccccc2)c(=O)n2cc(C(=O)NCc3ccc(F)cc3)sc12 (centres unmarked) [Example 87, 8-Methyl-5,7-dioxo-6-(1-phenyl-ethyl)-6,7-dihydro-5H-thiazolo[3,2-c]pyrimidine-2-carboxylic acid 4-fluoro-benzylamide] | 2.1 µM |  |
| C=C(C)Cn1c(=O)c(C)c2sc(C(=O)NCc3ccc(F)cc3)cn2c1=O [Example 93, 8-Methyl-6-(2-methyl-allyl)-5,7-dioxo-6,7-dihydro-5H-thiazolo[3,2-c]pyrimidine-2-carboxylic acid 4-fluoro-benzylamide] |  | IC50 [1, 7]: 1.55 µM |
| COC(=O)Nc1cc(Cn2c(=O)c(C)c3sc(C(=O)NCc4ccc(F)cc4)cn3c2=O)on1 [Example 111, {5-[2-(4-Fluoro-benzylcarbamoyl)-8-methyl-5,7-dioxo-7H-thiazolo[3,2-c]pyrimidine-6-ylmethyl]-isoxazol-3-yl}-carbamic acid methyl ester] |  | IC50 ([1]; running text after Table 1, read-out: IC50 inhibition of MMP-13CD): 0.17 µM |
| COc1cc(CNC(=O)c2cn3c(=O)n(Cc4ccc(F)c(F)c4)c(=O)c(C)c3s2)ccn1 [Example 114, 6-(3,4-Fluoro-benzyl)-8-methyl-5,7-dioxo-6,7-dihydro-5H-thiazolo[3,2-c]pyrimidine-2-carboxylic acid(2-methoxy-pyridin-4-ylmethyl)-amide hydrochloride] |  | IC50 ([1]; IC50 inhibition of MMP-13CD, running text after Table 1): 0.0155 µM |

Now from value to molecule, other results behind:

| IC50 [1, 6] | Compound | also measured |
| --- | --- | --- |
| 1.08 µM | Cc1c(=O)n(CCCCCC#N)c(=O)n2cc(C(=O)NCc3ccc(F)cc3)sc12 [Example 89, 6-(5-Cyano-pentyl)-8-methyl-5,7-dioxo-6,7-dihydro-5H-thiazolo[3,2-c]pyrimidine-2-carboxylic acid 4-fluoro-benzylamide] |  |
| > 30 µM | CCC(CC)n1c(=O)c(C)c2sc(C(=O)NCc3ccc(F)cc3)cn2c1=O [Example 94, 6-(1-Ethyl-propyl)-8-methyl-5,7-dioxo-6,7-dihydro-5H-thiazolo[3,2-c]pyrimidine-2-carboxylic acid 4-fluoro-benzylamide] |  |
| 1.2 µM | Cc1c(=O)n(CCS(=O)(=O)c2ccccc2)c(=O)n2cc(C(=O)NCc3ccc(F)cc3)sc12 [Example 96, 6-(2-Benzenesulfonyl-ethyl)-8-methyl-5,7-dioxo-6,7-dihydro-5H-thiazolo[3,2-c]pyrimidine-2-carboxylic acid 4-fluoro-benzylamide] |  |
| 10 µM | Cc1c(=O)n(CCNC(=O)c2ccccc2)c(=O)n2cc(C(=O)NCc3ccc(F)cc3)sc12 [Example 100, 6-(2-Benzoylamino-ethyl)-8-methyl-5,7-dioxo-6,7-dihydro-5H-thiazolo[3,2-c]pyrimidine-2-carboxylic acid 4-fluoro-benzylamide] |  |
| > 100 µM | Cc1c(=O)n(Cc2ccc(S(=O)(=O)N3CCOCC3)cc2)c(=O)n2ccsc12 [Example 108, 8-Methyl-6-[4-(morpholine-4-sulfonyl)-benzyl]-thiazolo[3,2-c]pyrimidine-5,7-dione] |  |
| 54 µM | Cc1c(=O)n(Cc2ccccc2)c(=O)n2cc(C(=O)NCC3CCCO3)sc12 (centres unmarked) [Example 110, 6-Benzyl-8-methyl-5,7-dioxo-6,7-dihydro-5H-thiazolo[3,2-c]pyrimidine-2-carboxylic acid(tetrahydro-furan-2-ylmethyl)-amide] |  |
